Laboratory results: paper PMC7463712, “Cholesterol as an Endogenous Ligand of ERRα Promotes ERRα-Mediated Cellular Proliferation and Metabolic Target Gene Expression in Breast Cancer Cells” (Cells, 2020)

Biological target: T1, estrogen-related receptor alpha (ERRα; NR3B1) (Homo sapiens, UniProt P11474)
T1 construct: gene ESRRA
T1 sequence (P11474 193-423 limits assumed): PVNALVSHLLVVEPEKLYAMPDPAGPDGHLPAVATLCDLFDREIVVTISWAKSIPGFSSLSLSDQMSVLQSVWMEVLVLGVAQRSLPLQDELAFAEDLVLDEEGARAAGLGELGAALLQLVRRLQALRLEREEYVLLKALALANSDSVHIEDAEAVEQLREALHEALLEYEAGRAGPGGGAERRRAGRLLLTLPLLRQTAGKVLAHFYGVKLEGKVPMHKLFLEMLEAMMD
Experiment: tryptophan fluorescence quenching; GST pull-down with LC-MS/MS
Format: binding

Structure (SMILES): CC(C)CCC[C@@H](C)[C@H]1CC[C@H]2[C@@H]3CC=C4C[C@@H](O)CC[C@]4(C)[C@H]3CC[C@]12C [cholesterol]
- Kd: 213 nM
